The values that follow come from ChEMBL document CHEMBL1133791, “Intracellular inhibition of human neutrophil elastase by orally active pyrrolidine-trans-lactams” (Bioorg Med Chem Lett, 2001).

Usually pIC50 stands for the negative decadic logarithm of the IC50, by convention in mol/L. The low end stands for a high IC50, the high end for a low IC50. In general, inhibition refers to the drop in the measured response relative to a control, in per cent. Low values mean little suppression, high ones strong suppression. Usually Vd stands for the apparent volume that relates the amount in the body to the concentration in plasma or blood. Low readings indicate little distribution into tissue, high ones wide distribution into tissue. As usually defined, the half-life is how long it takes for the measured level to halve. As usually defined, the bioavailability is dose-corrected exposure relative to a reference, in per cent. A word on the solubility: it is the dissolved amount per volume that the medium holds. High values mean a readily soluble substance, low ones a poorly soluble substance.

Data set [1] deals with T1, Neutrophil elastase (Homo sapiens, UniProt P08246).
T1 sequence (P08246 whole entry): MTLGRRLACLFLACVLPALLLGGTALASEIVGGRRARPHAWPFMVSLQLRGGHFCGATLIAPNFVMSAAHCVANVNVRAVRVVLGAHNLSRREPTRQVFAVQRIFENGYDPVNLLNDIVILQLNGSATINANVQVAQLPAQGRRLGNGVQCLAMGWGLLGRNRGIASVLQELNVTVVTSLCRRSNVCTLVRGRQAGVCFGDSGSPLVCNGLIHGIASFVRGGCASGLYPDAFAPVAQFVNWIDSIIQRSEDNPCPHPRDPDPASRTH
Nature of the data set: In vitro inhibitory activity against human neutrophil elastase (HNE).

Data set [2] addresses T2, Neutrophil elastase (Homo sapiens) (UniProt P08246).
T2 sequence (whole entry): T1 sequence (P08246 whole entry)
Nature of the data set: In vitro inhibition of human whole blood (HWB) elastase at a concentration of 10 uM except in buffer.

The target of data set [3] is T2, Neutrophil elastase (Homo sapiens). Nature of the data set: In vitro percent inhibition of human whole blood (HWB) elastase at a concentration of 10 uM except in plasma. In kind it is tissue-based.
Data set [4] has as its system Hamster. Nature of the data set: Plasma clearance after iv administration at 4 mg/kg in hamster. Conditions: cricetinae, in vivo. Details: dose 4 mg/kg, route intravenous. Format: ADME, organism-based.
Data set [5] concerns the target T2, Neutrophil elastase (Homo sapiens). The data set can be described thus: Compound was evaluated in vivo for the inhibition of elastase in hamster bronchoalveolar lavage (BAL) 6 hour after an intratracheal dose of IL-8 at a concentration 20 mg/kg. Format: organism-based. More on the design: dose 20 mg/kg. Conditions: Cricetulus griseus; Lung.
Data set [6] in a line: Volume distribution after iv administration at 4 mg/kg in hamster. Details: dose 4 mg/kg, route intravenous. In kind it is ADME, organism-based. Conditions: cricetinae, in vivo.
The target of data set [7] is T2, Neutrophil elastase (Homo sapiens). Nature of the data set: Compound was evaluated in vivo for the inhibition of elastase in hamster bronchoalveolar lavage (BAL) 6 hour after an intratracheal dose of IL-8 at a concentration 40 mg/kg. In kind it is organism-based. Conditions: Cricetulus griseus; Lung. More on the design: dose 40 mg/kg.
The target is the same in data set [8]. Nature of the data set: Compound was evaluated in vivo for the inhibition of elastase in hamster bronchoalveolar lavage (BAL) 6 hour after an intratracheal dose of IL-8 at a concentration 10 mg/kg. Format: organism-based. Details: dose 10 mg/kg. Conditions: Cricetulus griseus; Lung.
Data set [9] is described as follows: Half life after iv administration at 4 mg/kg in hamster. Conditions: cricetinae, in vivo. More on the design: dose 4 mg/kg, route intravenous. Format: ADME, organism-based.
Data set [10] in a line: Bioavailability after po administration at 4 mg/kg in hamster. In kind it is ADME, organism-based, Cricetulus griseus. Conditions: chinese hamster, in vivo.
The nature of data set [11]: Solubility in water was evaluated. In kind it is physicochemical.
Data set [12] in a line: Half life after po administration of 10 mg/kg in hamster. Details: dose 10 mg/kg, route oral. Format: ADME, organism-based. Conditions: cricetinae, in vivo.
For data set [13], the system named is Hamster. The data set can be described thus: Plasma clearance after iv administration at 3 mg/kg in hamster. In kind it is ADME, organism-based. Details: dose 3 mg/kg, route intravenous. Conditions: cricetinae, in vivo.
A short description of data set [14]: Half life after iv administration at 3 mg/kg in hamster. In kind it is ADME, organism-based. More on the design: dose 3 mg/kg, route intravenous. Conditions: cricetinae, in vivo.
The target of data set [15] is T2, Neutrophil elastase (Homo sapiens). Conditions: Cricetulus griseus; Liver; Microsome; 20 mg/kg.
Description: Compound was evaluated for the inhibition of elastase in hamster liver microsomes at a concentration of 20 mg/kg
A short description of data set [16]: Bioavailability after po administration of 10 mg/kg in hamster. Format: ADME, organism-based, Cricetulus griseus. Conditions: chinese hamster, in vivo.
Data set [17] has as its target T2, Neutrophil elastase (Homo sapiens). Conditions: Cricetulus griseus; Liver; Microsome; 10 mg/kg.
Description: Compound was evaluated for the inhibition of elastase in hamster liver microsomes at a concentration of 10 mg/kg
Data set [18] in a line: Volume distribution after iv administration at 3 mg/kg in hamster. Conditions: cricetinae, in vivo. More on the design: dose 3 mg/kg, route intravenous. In kind it is ADME, organism-based.
The target of data set [19] is T2, Neutrophil elastase (Homo sapiens). Nature of the data set: In vitro inhibition of human whole blood (HWB) elastase at a concentration of 10 uM.
Data set [20] has as its target T1, Neutrophil elastase. The data set can be described thus: In vitro inhibitory activity in human whole blood (HWB) elastase. In kind it is tissue-based.
In data set [21] the target is T1, Neutrophil elastase. Nature of the data set: In vitro inhibitory activity in human whole blood (HWB) elastase at a concentration of 10. In kind it is tissue-based.

pIC50: −log10 of the molar value. Residues, ends and D or L forms follow the SMILES beside them. *: point of attachment. CF3 = FC(F)(F)*; Moc = COC(=O)*

On Neutrophil elastase [1], `C=CC[C@H]1C(=O)N(CCCCCC)[C@H]2CCN(C(=O)OCc3ccccc3)[C@H]12` gave a pIC50 of 7.54.

In turn, `C=CC[C@H]1C(=O)N[C@H]2CCN(C(=O)OCc3ccccc3)[C@@H]21` had a pIC50 against Neutrophil elastase [1] of less than 6.30.

`C=CC[C@H]1C(=O)N(C(=O)OCC)[C@H]2CCN(C(=O)OCc3ccccc3)[C@H]12` gave a pIC50 against Neutrophil elastase [1] of 8.70.

Turning to `C=CC[C@H]1C(=O)N(S(=O)(=O)c2ccc3ccccc3c2)[C@H]2CCN(C(=O)OCc3ccccc3)[C@H]12`, the inhibition in [2] worked out at 92%; in [3], 23%.

`CCC[C@H]1C(=O)N(S(=O)(=O)c2ccc3ccccc3c2)[C@H]2CCN(C(=O)CCN3CCCCC3)[C@H]12.Cl` gave a pIC50 against Neutrophil elastase [1] of 6.86. In the data set with Hamster [4], this compound had a Clp of 200 mL/min/kg. Further, the figures for the inhibition in data set [5], in data set [7] and in data set [8] were 30%, 60% and 10%, respectively. Also, the Vd in data set [6] is 8.1 L/kg. For the same compound, the half-life in [9] was 30 min. For the same compound, the bioavailability in data set [10] amounted to 1%. Moreover, the solubility in data set [11] was more than 1000 µg/mL.

As to `CCC[C@H]1C(=O)N(S(C)(=O)=O)[C@H]2CCN(C(=O)CCN3CCCCC3)[C@H]12.Cl`, the pIC50 at Neutrophil elastase [1] is 6.85. The results for the half-life in [12] and in data set [14] were 30 min and 12 min, respectively. This compound returned a Clp with Hamster [13] of 140 mL/min/kg. Further, the inhibition in [15] is 76%; in data set [17], 41%. The bioavailability in data set [16] came out at 49%. For the same compound, the Vd in data set [18] worked out at 2.3 L/kg. The compound also showed a solubility in data set [11] of more than 1000 µg/mL.

With `C=CC[C@H]1C(=O)N(C(=O)NCC)[C@H]2CCN(C(=O)OCc3ccccc3)[C@H]12`, at Neutrophil elastase [1], the pIC50 was 7.51.

`C=CC[C@H]1C(=O)N(S(C)(=O)=O)[C@H]2CCN(C(=O)OCc3ccccc3)[C@H]12`: the inhibition in [19] was 98%.

As to `COC(=O)N[C@H](C(=O)N1CCC[C@H]1C(=O)N[C@H](C(=O)C(F)(F)F)C(C)C)C(C)C` (Moc-Val-Pro-Val-CF3), the pIC50 against Neutrophil elastase [20] is less than 8.00.

In the case of `CCC[C@@H](NC(=O)N1C(=O)C(CC)(CC)[C@@H]1Oc1ccc(C(=O)N2CCN(C)CC2)cc1)c1ccc2c(c1)OCO2`, the pIC50 against Neutrophil elastase [21] is 9.35.
